Experimental data: PubChem BioAssay (NCI)
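Compound exposure: 48 hours, 5 concentrations, 96-well plates. GI50 is the concentration that inhibits growth by half. At the TGI there is no net growth.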

What was measured:
Assay in all cases: NCI tumour cell line growth inhibition, 48 h
HL-60(TB) leukemia = tested on: HL-60(TB) leukemia
MALME-3M melanoma = tested on: MALME-3M melanoma
HCT-15 colon = tested on: HCT-15 colon
SF-539 CNS = tested on: SF-539 CNS
RPMI-8226 leukemia = tested on: RPMI-8226 leukemia
NCI/ADR-RES ovarian = tested on: NCI/ADR-RES ovarian
SF-268 CNS = tested on: SF-268 CNS
CAKI-1 renal = tested on: CAKI-1 renal
UACC-62 melanoma = tested on: UACC-62 melanoma
M14 melanoma = tested on: M14 melanoma
SK-MEL-5 melanoma = tested on: SK-MEL-5 melanoma
ACHN renal = tested on: ACHN renal
DU-145 prostate = tested on: DU-145 prostate
A498 renal = tested on: A498 renal
MCF7 breast = tested on: MCF7 breast
MDA-MB-468 breast = tested on: MDA-MB-468 breast
SNB-19 CNS = tested on: SNB-19 CNS
RXF 393 renal = tested on: RXF 393 renal
MDA-MB-231 breast = tested on: MDA-MB-231 breast
EKVX NSCLC = tested on: EKVX NSCLC
CCRF-CEM leukemia = tested on: CCRF-CEM leukemia
OVCAR-5 ovarian = tested on: OVCAR-5 ovarian
OVCAR-4 ovarian = tested on: OVCAR-4 ovarian
K-562 leukemia = tested on: K-562 leukemia
786-0 renal = tested on: 786-0 renal
OVCAR-8 ovarian = tested on: OVCAR-8 ovarian
SK-OV-3 ovarian = tested on: SK-OV-3 ovarian
NCI-H522 lung = tested on: NCI-H522 lung
UACC-257 melanoma = tested on: UACC-257 melanoma

C/C(=N\Nc1ccc(S(N)(=O)=O)cc1)c1ccc(N=Nc2c(Nc3ccccc3)[nH][nH]c2=O)cc1
GI50 (HL-60(TB) leukemia): 2.86 µM
TGI (HL-60(TB) leukemia): 17.1 µM
GI50 (MALME-3M melanoma): 1.98 µM
TGI (MALME-3M melanoma): 3.85 µM
GI50 (HCT-15 colon): 5.29 µM
TGI (HCT-15 colon): 18.4 µM
GI50 (SF-539 CNS): 1.58 µM
TGI (SF-539 CNS): 3.68 µM
GI50 (RPMI-8226 leukemia): 3.36 µM
TGI (RPMI-8226 leukemia): 28.2 µM
GI50 (NCI/ADR-RES ovarian): > 100 µM
TGI (NCI/ADR-RES ovarian): > 100 µM
GI50 (SF-268 CNS): 2.22 µM
TGI (SF-268 CNS): 6.23 µM
GI50 (CAKI-1 renal): 12.5 µM
TGI (CAKI-1 renal): 25.1 µM
GI50 (UACC-62 melanoma): 1.96 µM
TGI (UACC-62 melanoma): 4.34 µM
GI50 (M14 melanoma): 2.83 µM
TGI (M14 melanoma): 7.55 µM
GI50 (SK-MEL-5 melanoma): 3.32 µM
TGI (SK-MEL-5 melanoma): 12.8 µM
GI50 (ACHN renal): 5.9 µM
TGI (ACHN renal): 18.5 µM
GI50 (DU-145 prostate): 3.21 µM
TGI (DU-145 prostate): 10.4 µM
GI50 (A498 renal): 11.4 µM
TGI (A498 renal): 32.8 µM
GI50 (MCF7 breast): 2.4 µM
TGI (MCF7 breast): 7.34 µM
GI50 (MDA-MB-468 breast): 1.4 µM
TGI (MDA-MB-468 breast): 3 µM
GI50 (SNB-19 CNS): 2.59 µM
TGI (SNB-19 CNS): 8.76 µM
GI50 (RXF 393 renal): 1.1 µM
TGI (RXF 393 renal): 3.88 µM
GI50 (MDA-MB-231 breast): 2 µM
TGI (MDA-MB-231 breast): 4.07 µM
GI50 (EKVX NSCLC): 5.39 µM
TGI (EKVX NSCLC): 26.9 µM
GI50 (CCRF-CEM leukemia): 2.63 µM
TGI (CCRF-CEM leukemia): 8.92 µM
GI50 (OVCAR-5 ovarian): 11 µM
TGI (OVCAR-5 ovarian): 24.4 µM
GI50 (OVCAR-4 ovarian): 2.84 µM
TGI (OVCAR-4 ovarian): 9.26 µM
GI50 (K-562 leukemia): 2.29 µM
TGI (K-562 leukemia): 6.37 µM
GI50 (786-0 renal): 2.14 µM
TGI (786-0 renal): 6.27 µM
GI50 (OVCAR-8 ovarian): 2.59 µM
TGI (OVCAR-8 ovarian): 7.81 µM
GI50 (SK-OV-3 ovarian): 2.34 µM
TGI (SK-OV-3 ovarian): 6.47 µM
GI50 (NCI-H522 lung): 2.17 µM
TGI (NCI-H522 lung): 5.25 µM
GI50 (UACC-257 melanoma): 3.97 µM
TGI (UACC-257 melanoma): 16.7 µM
